The results in this text go back to paper PMC9894685, “Abscisic acid agonists suitable for optimizing plant water use” (Frontiers in Plant Science, 2023).

In one assay the target is T1, RCAR1-ABI2 (Arabidopsis thaliana, UniProt O04719+Q84MC7).
T1 construct: 6xHis (N); made in house; host or cells: Escherichia coli BL21
T1 sequence (Q84MC7 1-187): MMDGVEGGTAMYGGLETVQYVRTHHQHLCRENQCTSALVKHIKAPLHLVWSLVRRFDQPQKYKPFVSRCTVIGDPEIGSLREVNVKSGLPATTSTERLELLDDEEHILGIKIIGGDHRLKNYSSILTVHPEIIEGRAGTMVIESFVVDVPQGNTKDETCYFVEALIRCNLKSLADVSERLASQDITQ
T1 sequence (O04719 1-423): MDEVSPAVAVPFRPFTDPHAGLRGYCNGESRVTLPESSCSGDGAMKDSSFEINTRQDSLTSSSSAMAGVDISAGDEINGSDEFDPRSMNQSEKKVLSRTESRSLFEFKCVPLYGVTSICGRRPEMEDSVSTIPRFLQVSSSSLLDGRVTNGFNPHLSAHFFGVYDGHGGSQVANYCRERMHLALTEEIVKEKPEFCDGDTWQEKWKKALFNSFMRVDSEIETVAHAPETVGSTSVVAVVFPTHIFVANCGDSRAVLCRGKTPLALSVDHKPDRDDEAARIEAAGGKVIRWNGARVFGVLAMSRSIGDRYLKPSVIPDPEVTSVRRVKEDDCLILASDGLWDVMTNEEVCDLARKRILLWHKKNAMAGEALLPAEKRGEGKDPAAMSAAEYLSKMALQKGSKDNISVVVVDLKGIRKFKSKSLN
The assay is described as follows: In vitro phosphatase assay, ABI2 with RCAR1. The note with it: for Statistical significance of RCAR1-mediated inhibition of ABI2 phosphatase activity vs ABA / Statistical significance of RCAR1-mediated inhibition of ABI2 phosphatase activity vs CCP1: Fig. 3B. Type of assay: biochemical. The procedure: Expression, purification, and analysis of RCAR and PP2C proteins were performed essentially as described ([Ruschhaupt et al., 2019]). Briefly, the ABA receptors RCAR1, RACR8, and RCAR11 were expressed with an aminoterminal histidine tag using the pSEVA431_LII_6xHIS::RCAR1/RCAR8/RCAR11. ABA coreceptors were expressed as histidine-tagged fusions with the maltose-binding protein using the pSEVA431_LII_6xHIS::MBP::ABI2/HAB1. All constructs were transformed and expressed in Escherichia coli strain BL21 and purified to homogeneity according to supplier’s instruction (GE Healthcare, Chicago, USA). The receptor assay was performed with 100 nM PP2C and a two-fold molar excess of RCAR. Values are means ± SD of three replicates. […] The maximum inhibition was set to 100% in the figures. The phosphatase activity was measured using 4-methylumbelliferyl-phosphate as a substrate ([Meinhard and Grill, 2001]). The increase in fluorescence was recorded over 25 min with excitation and emission wavelengths at 360 and 460 nm, respectively, using a Synergy 2 plate reader (Bio-Tec, Winooski, USA).

Assay [1] relates to Arabidopsis aba2-1 protoplasts. Nature of the assay: Transient ABA response in Arabidopsis protoplasts (pRD29B::LUC, RCAR11 and ABI2 effectors). The format is cell-based, Arabidopsis thaliana. The following applies: aba2-1 protoplasts, 18 h ligand exposure. How it is done: Preparation of Arabidopsis protoplasts, transfection of the effector DNA, and analysis of LUC activity were performed as described ([Tischer et al., 2017]). In essence, 10^5 mesophyll protoplasts from leaves of the ABA deficient mutant aba2-1 ([Schwartz et al., 1997]) were transfected with 4 µg DNA of the pRD29B::LUC construct as an ABA-responsive reporter and 3 µg of p35S::GUS (β-glucuronidase reporter gene) expression cassette as an internal control for normalization. In addition, 3 µg p35S::RCAR11 or the empty vector with the same expression cassette were co-expressed with 0.1 µg p35S::ABI2 effector constructs ([Tischer et al., 2017]), and the ligand-dependent induction of ABA-responsive reporter expression were assessed after incubation at 22°C. The expression of LUC and GUS was determined 18 h after transfection and ligand administration.

The next assay has as its system T2, RCAR8/PYL5-ABI2.
T2 construct: expressed in transfected cells; host or cells: yeast (LUC reporter strain)
Nature of the assay: Yeast ABA signal pathway LUC reporter, RCAR8-ABI2. The format is cell-based, Arabidopsis thaliana. How it is done:
The yeast cultivation and the life luciferase assay were performed as described ([Ruschhaupt et al., 2019]). Briefly, the reporter yeast expressing an ABA-dependent luciferase gene (LUC) was transformed with different combinations of ABA signaling components as indicated. Golden gate cloning ([Binder et al., 2014]) was used to construct pYEAST_LII_5‐6_CEN_URA vector with TDH3 promoter and TDH1 terminator (tTDH1), pYEAST_LII_1‐2_CEN_LEU vector with GK1 promoter and tTDH1, and pYEAST_LII_3‐4_CEN_TRP with the GAL1 promoter (pGAL1) and tTDH1 to express RCARs, PP2Cs, and OST1 (SnRK2.6), respectively ([Ruschhaupt et al., 2019]). The expression of ABF2 in yeast relies on a modified pGREG503 vector, in which pGAL1 ([Jansen et al., 2005]) was replaced by the ADH1 promoter.
Colonies of freshly transformed cells were inoculated in 0.5 mL supplemented synthetic dextrose (SD) medium and incubated at 30°C in a gyratory shaker (Thermoshake-THO500, Gerhardt, Königswinter, Germany) at 200 rpm for 16-18 h. After overnight growth, the cells were harvested and washed in SD medium followed by inoculation in SD medium containing 2% galactose for induction of SnRK2 kinases under the control of the GAL1 promoter and supplementation with ligands at indicated concentrations, to an OD600 of 0.2 in flat-bottom 96-well plates (CytoOne, Starlab, Hamburg, Germany). Yeast cultures were incubated at 30°C and 200 rpm for 16-18 h before determination of LUC activity and cell density. Light emission of yeasts was detected in a HIDEX plate luminometer (HIDEX, Turku, Finland) after injection of 100 µL freshly prepared luciferin substrate (1 mM D-luciferin, Promega) provided in 100 mM citric acid, pH 3 ([Leskinen et al., 2003]) for 5 s and was corrected for background. The LUC activity was normalized to the cell density (OD600) measured in 96-well flat plates (Sarstedt, Nümbrecht, Germany). LUC activity is given as the ratio of light emission to OD600 in counts per second.

Regarding `CCC(=C/C(=O)O)/C=C/C(O)(C(C)C)C1(C#N)CC1` (stereo not drawn) [CCP2], the “Statistical significance of RCAR1-mediated inhibition of ABI2 phosphatase activity vs ABA” value was “ns (Otherwise, the difference is regarded as insignificant indicated as “ns”)” on RCAR1-ABI2 (0.003 µM); “ns (Otherwise, the difference is regarded as insignificant indicated as “ns”)” on RCAR1-ABI2 (0.01 µM); “s (P < 0.05 (one-way ANOVA) is considered as a significant difference and expressed as “s”)” on RCAR1-ABI2 (0.03 µM); “s (P < 0.05 (one-way ANOVA) is considered as a significant difference and expressed as “s”)” on RCAR1-ABI2 (0.1 µM); “s (P < 0.05 (one-way ANOVA) is considered as a significant difference and expressed as “s”)” on RCAR1-ABI2 (0.3 µM); “s (P < 0.05 (one-way ANOVA) is considered as a significant difference and expressed as “s”)” at RCAR1-ABI2 (1 µM). Further, the “Statistical significance of RCAR1-mediated inhibition of ABI2 phosphatase activity vs ABA” value at RCAR1-ABI2 (3 µM) is “s (P < 0.05 (one-way ANOVA) is considered as a significant difference and expressed as “s”)”; at RCAR1-ABI2 (10 µM) it was “s (P < 0.05 (one-way ANOVA) is considered as a significant difference and expressed as “s”)”; at RCAR1-ABI2 (30 µM), “s (P < 0.05 (one-way ANOVA) is considered as a significant difference and expressed as “s”)”; at RCAR1-ABI2 (100 µM), “s (P < 0.05 (one-way ANOVA) is considered as a significant difference and expressed as “s”)”. Moreover, the “Statistical significance of RCAR1-mediated inhibition of ABI2 phosphatase activity vs CCP1” value on RCAR1-ABI2 (0.003 µM) is “ns (Otherwise, the difference is regarded as insignificant indicated as “ns”)”; on RCAR1-ABI2 (0.01 µM) it was “ns (Otherwise, the difference is regarded as insignificant indicated as “ns”)”; at RCAR1-ABI2 (0.03 µM), “ns (Otherwise, the difference is regarded as insignificant indicated as “ns”)”; at RCAR1-ABI2 (0.1 µM) it was “s (P < 0.05 (one-way ANOVA) is considered as a significant difference and expressed as “s”)”; on RCAR1-ABI2 (0.3 µM), “s (P < 0.05 (one-way ANOVA) is considered as a significant difference and expressed as “s”)”; on RCAR1-ABI2 (1 µM), “ns (Otherwise, the difference is regarded as insignificant indicated as “ns”)”. The “Statistical significance of RCAR1-mediated inhibition of ABI2 phosphatase activity vs CCP1” value on RCAR1-ABI2 (3 µM) is reported as “ns (Otherwise, the difference is regarded as insignificant indicated as “ns”)”; at RCAR1-ABI2 (10 µM), “ns (Otherwise, the difference is regarded as insignificant indicated as “ns”)”; on RCAR1-ABI2 (30 µM), “ns (Otherwise, the difference is regarded as insignificant indicated as “ns”)”; at RCAR1-ABI2 (100 µM), “ns (Otherwise, the difference is regarded as insignificant indicated as “ns”)”. Moreover, the “IC50 relative to ABA (fold higher)” value on RCAR1-ABI2 (100 nM ABI2 and 200 nM RCAR1) was “approximately 100 fold”. Also, in assay [1], the “Induction of ABA signaling compared to ABA” value is listed as “ABA-like activity”. In addition, the “Reporter induction relative to ABA” value in the assay with RCAR8/PYL5-ABI2 (1 µM exogenous ligand) is listed as “no significant reporter regulation”. For the same compound, the “Higher level required for induction value comparable to 1 µM ABA” value in the assay with RCAR8/PYL5-ABI2 (yeast, RCAR8-ABI2) is recorded as > 30 x.
